From US9216957B2, “Androgen receptor antagonists and uses thereof” (SUZHOU KINTOR PHARMACEUTICALS, INC., priority 2011, dated 2015) come the findings set out here.

SMILES strings stand for the structures.

The first test relates to Prostate-specific antigen (PSA) production in LNCaP cells. The experiment in a line: PSA Assay (inhibition of PSA production in prostate cancer cells, ELISA). To be noted: Homo sapiens, LNCaP, 72 h, read-out: LNCAP IC50 (uM), inhibition of PSA production, LNCaP cells, R1881 1 ng/ml, three days, seven point assay. Type of test: cell-based, human. How it is done:
PSA Assay (Inhibition Test of the Compound of the Present Invention on Prostate-Specific Antigen (PSA) Production in Various Prostate Cancer Cells).
Androgen dependent LNCaP cells were purchased from the American Type Culture Collection (ATCC, Manassas, Va.). These cells were grown in RPMI 1640 medium supplemented with 10% fetal bovine serum (FBS), 100 U/mL penicillin, 100 μg/mL streptomycin, and 0.25 μg/mL amphotericin B. The cells were maintained at 37° C. and 5% CO2. LNCaP cells between passage 20 and 35 were used for experiments. LNCaP is a hormone sensitive cell line. For the PSA assay, human prostate cancer cells LNCaP were seeded in a 96-well plate at a concentration of 5000 cells/100 μl/well. On the following day, Methyltrienolone (R1881, AR agonist) (final concentration 1 ng/ml), test compounds or bicalutamide (Casodex®, AstraZeneca) (final concentration 0.005 to 20 μM) were added. Three days after the addition, the concentration of PSA in the supernatant of the culture solution was measured by ELISA. ELISAs for human PSA in culture medium were performed using the ultra-sensitive assay procedure and reagents in the Active™ PSA assay kit (Diagnostic Systems Laboratories Inc., Webster, Tex.). Culture medium and standards (200 μl/well) were incubated in antibody-coated plates for 2 h at room temperature on a Titer plate shaker at 500-600 rpm. Wells were then washed five times. The HRP conjugate was diluted 1:20 with assay buffer, and 100 μl was added to all wells. The plates were incubated for 30 min at room temperature on the shaker and washed as before, and 100 μl TMB (3,3′,5,5′-tetramethylbenzidine, 0.4 g/l) was added. The plates were incubated for 10 min on the shaker, and the reaction was terminated with 100 μl stop solution. The plates were read using a plate reader at 450 nm with a 650 nm reference filter. PSA levels were normalized for differences in growth of LNCaP cells following various treatments as determined by the MTS assay. IC50 of PSA was calculated based on a seven point assay (concentrations of tested compound) and expressed as micromolar (uM).
(In general: ELISA stands for enzyme-linked immunosorbent assay.)
As for `COC(=O)CCCc1ccc(N2C(=S)N(c3ccc(C#N)c(Cl)c3F)C(=O)C2(C)C)cc1` [Example 1, methyl 4-(4-(3-(3-chloro-4-cyano-2-fluorophenyl)-5,5-dimethyl-4-oxo-2-thioxoimidazolidin-1-yl)phenyl)butanoate], the IC50 is 1.34 µM.
Same read-out and setting: as for `COC(=O)CCCc1ccc(N2C(=S)N(c3ccc(C#N)c(C(F)(F)F)c3F)C(=O)C2(C)C)cc1` [Example 2, methyl 4-(4-(3-(4-cyano-2-fluoro-3-(trifluoromethyl)phenyl)-5,5-dimethyl-4-oxo-2-thioxoimidazolidin-1-yl)phenyl)butanoate], the figure is 1.45 µM; as for `COC(=O)CCc1ccc(N2C(=S)N(c3ccc(C#N)c(C(F)(F)F)c3F)C(=O)C2(C)C)cc1` [Example 3, methyl 3-(4-(3-(4-cyano-2-fluoro-3-(trifluoromethyl)phenyl)-5,5-dimethyl-4-oxo-2-thioxoimidazolidin-1-yl)phenyl)propanoate], 7.83 µM; as for `CNC(=O)CCc1ccc(N2C(=S)N(c3ccc(C#N)c(C(F)(F)F)c3F)C(=O)C2(C)C)cc1` [Example 4, 3-(4-(3-(4-cyano-2-fluoro-3-(trifluoromethyl)phenyl)-5,5-dimethyl-4-oxo-2-thioxoimidazolidin-1-yl)phenyl)-N-methylpropanamide], 14.4 µM.
With `CNC(=O)CCCc1ccc(N2C(=S)N(c3ccc(C#N)c(C(F)(F)F)c3F)C(=O)C2(C)C)cc1` [Example 5, 4-(4-(3-(4-cyano-2-fluoro-3-(trifluoromethyl)phenyl)-5,5-dimethyl-4-oxo-2-thioxoimidazolidin-1-yl)phenyl)-N-methylbutanamide], the IC50 was 0.37 µM.
On the same count and under the same terms, with `CNC(=O)CCCc1ccc(N2C(=S)N(c3cc(C(F)(F)F)c(C#N)cc3F)C(=O)C2(C)C)cc1` [Example 6, 4-(4-(3-(4-cyano-2-fluoro-5-(trifluoromethyl)phenyl)-5,5-dimethyl-4-oxo-2-thioxoimidazolidin-1-yl)phenyl)-N-methylbutanamide] the figure was 4.75 µM.
Same read-out and setting: with `CNC(=O)CCCc1ccc(N2C(=S)N(c3ccc(C#N)c(Cl)c3F)C(=O)C2(C)C)cc1` [Example 7, 4-(4-(3-(3-chloro-4-cyano-2-fluorophenyl)-5,5-dimethyl-4-oxo-2-thioxoimidazolidin-1-yl)phenyl)-N-methylbutanamide] the figure was 0.65 µM; with `CC1(C)C(=O)N(c2ccc(C#N)c(C(F)(F)F)c2F)C(=S)N1c1ccc(CCCC(N)=O)cc1` [Example 8, 4-(4-(3-(4-cyano-2-fluoro-3-(trifluoromethyl)phenyl)-5,5-dimethyl-4-oxo-2-thioxoimidazolidin-1-yl)phenyl)butanamide], 0.43 µM.
The same measure, in the same setting: with `CC1(C)C(=O)N(c2ccc(C#N)c(Cl)c2F)C(=S)N1c1ccc(CCCC(N)=O)cc1` [Example 9, 4-(4-(3-(3-chloro-4-cyano-2-fluorophenyl)-5,5-dimethyl-4-oxo-2-thioxoimidazolidin-1-yl)phenyl)butanamide] the figure was 0.59 µM.
`CNC(=O)CCCc1ccc(N2C(=S)N(c3ccc(C#N)c(C(F)(F)F)c3F)C(=O)C23CCC3)cc1` [Example 10, 4-(4-(7-(4-cyano-2-fluoro-3-(trifluoromethyl)phenyl)-8-oxo-6-thioxo-5,7-diazaspiro[3.4]octan-5-yl)phenyl)-N-methylbutanamide]: the IC50 turned out to be 0.42 µM.
Consider `CNC(=O)CCCc1ccc(N2C(=S)N(c3ccc(C#N)c(Cl)c3F)C(=O)C23CCC3)cc1` [Example 11, 4-(4-(7-(3-chloro-4-cyano-2-fluorophenyl)-8-oxo-6-thioxo-5,7-diazaspiro[3.4]octan-5-yl)phenyl)-N-methylbutanamide], for which the IC50 was determined as 0.54 µM.

Staying with this test, now noted: Homo sapiens; LNCaP cells; read-out: IC50 of inhibition of PSA production in LNCaP cells.
For `CC(O)(CS(=O)(=O)c1ccc(F)cc1)C(=O)Nc1ccc(C#N)c(C(F)(F)F)c1` (stereo not drawn) [Bicalutamide, reference compound], the IC50 was determined as 3.1 µM.
